From publication PMC8179002, “Inhibitors of thiol-mediated uptake” (Chemical Science, 2020)
Read-outs that look alike come from different tables or passages of the source.

How the values were obtained:
[1] = system: cellular uptake of 1 in HeLa Kyoto cells; assay: cells; assay type: cell-based; details: HeLa; for IC50 / minimal effective concentration: HeLa Kyoto, removal, tinc 0.5 h with 1 (10 µM); for IC50: read-out: IC50, inhibition of cellular uptake of 1; for minimal effective concentration: read-out: MIC, inhibition of cellular uptake of 1; for MIC (concentration that causes ∼15% reduction of reporter uptake), against reporter 1: pre-incubation time not given (Fig. 2: 1 h pre-incubation, 30 min with reporter; some 15 min)
Description: (§1) With COCs 1 and 2 as cell-penetrating reporters, a fully automated, fluorescent microscopy image-based high-content high-throughput (HCHT)[19] inhibitor screening assay was developed. HeLa cells in multiwell plates are incubated with a reporter at constant and inhibitors at varying concentrations and incubation times. Hindered reporter uptake then causes decrease of fluorescence inside of cells (Fig. 3a). Automated data analysis[19] was established to extract average fluorescence intensity per cell and, at the same time, cell viability from propidium iodide negative nuclei count (Fig. 3 and S3–S6 ^†). Standard assay conditions consisted of pre-incubation of HeLa cells with inhibitors for different periods of time, followed by the removal of inhibitors and the addition of reporters, thus excluding possible interactions between the two in the extracellular environment. In alternative co-incubation conditions, inhibitors were not removed before the addition of reporters to allow for eventual interactions between the two.
4. High-Content High-Throughput (HCHT) Inhibitor Screening
4.1. General Procedure for HCHT Inhibitor Screening
4.1.1. Pre-Incubation of Inhibitors
HeLa Kyoto cells were seeded at 1.2 ×10^4 cells/well in FluoroBrite DMEM + 10% FBS on μ-Plate 96-well Black ibiTreat sterile and kept at 37 °C with 5% CO2 overnight. Next day, serial dilutions of the inhibitors in PBS (10x final concentration), reporter 1 or 2 (100 μM in PBS) and a solution of Hoechst 33342 (100 μg/mL) and PI (10 μg/mL) in PBS were prepared freshly in a 96-well V-bottom plate. Then, cells were washed with PBS ([…]) and the media was exchanged to FluoroBrite DMEM (4 x 150 μL/well) using a plate washer (Biotek EL406®), keeping always a final volume of 135 μL/well. The inhibitor solutions from the V-bottom plate were added to the cells (15 μL/well, 10x final concentration in PBS) using an electronic multichannel pipettes to reach a final volume of 150 μL/well. Cells were incubated for the time of interest (for details of each inhibitors, see Section 4.3 and 4.4) at 37 °C with 5%
CO2. After this, cells were washed again using the plate washer and reporter solution 1 or 2 from the V-bottom plate was added (15 μL/well) using an electronic multichannel pipettes to reach a final volume of 150 μL/well and a final concentration of 10 μM, except for the control wells, where only PBS was added (15 μL/well). After 30 min of incubation at 37 °C with 5% CO2, the plate was washed again using the plate washer. Then, the solution of Hoechst 33342 and PI from V-bottom plate was added (15 μL/well) using an electronic multichannel pipettes to reach a final volume of 150 μL/well. After 15 min of incubation at 37 °C with 5% CO2, the plate was washed one last time and the cells were kept in clean FluoroBrite DMEM. During imaging, samples were kept at 37 °C with 5% CO2 in the microscope.
4.1.2. Co-Incubation of Inhibitors and Reporters […]
serial dilutions of the inhibitors in PBS (10x final concentration), reporter 1 or 2 (110 μM in […]
freshly in a 96-well V-bottom plate. Then, cells were washed with the plate washer. The inhibitor solutions from the V-bottom plate were added to the cells (15 μL/well, 10x final concentration in PBS) using an electronic multichannel pipettes to reach a final volume of 150 μL/well. Cells were incubated for the time of interest (for details of each inhibitors, see Section 4.3 and 4.4) at 37 °C with 5% CO2. Reporter solution 1 or 2 from V-bottom plate was then added (15 μL/well) using an electronic multichannel pipettes to reach a final volume of 165 μL/well and a final concentration of 10 μM 30 min before the next washing process, except for the control wells, where only PBS was added (15 μL/well). The plate was washed again using the plate washer. The solution of Hoechst 33342 and PI from V-bottom plate was added (15 μL/well) using an electronic multichannel pipettes to reach a final volume of 150 μL/well. After […]

[2] = Relative cell viability in HCHT screening (propidium iodide negative nuclei count); assay type: cell-based; details: human; for GI50: HeLa, removal, tinc 0.5 h with 1 (10 µM), read-out: GI50, concentration causing 50% cell growth inhibition
Description: as §1
To be able to extract the fluorescent integrated intensity information (sum of the intensities of all the pixels included in the mask) from the green channel for live cell only, the image analysis pipeline contains several steps of cell filtering and selection:
1) Firstly, PI is used to stain any remaining nuclei of dead cell. In the analysis pipeline, all the “dead” nuclei are detected based on their fluorescent intensity in the PI channel (Figure […]
Fig. S4 (A) PI positive nuclei mask (fluorescent intensity threshold of 1000). (B) Overlap image of dead nuclei mask and original all cell body mask. (C) Resulting cell mask after removing any cell marked by a dead nucleus, new mask is called “Live Cell”. Scale bar: 50 μm.
2) Elimination of non-full cells from the border of the image is performed, to avoid inaccurate fluorescent integrated intensity quantification (fluorescent integrated intensity = sum of intensity of all the pixel of the object) (Figure S5).
(1 picture or pasted object on this page, not shown here)
4.3. HCHT Inhibitor Screening with ETP as Reporter […]
(§2) Relative cell viability (RV) for each condition in the presence of inhibitors were calculated using the count value of living cells by dividing the count value of living cells with addition of reporter 1, Hoechst 33342 and PI, for each set of experiments. Duplicates were performed for each condition. The resulting dependence of the relative cell viability (RVrel) to the concentration of inhibitors (cinhibitor) was plotted and fitted with Equation (S2) to retrieve the concentration causing 50% cell growth inhibition (GI50) value and the Hill coefficient (n).
RVrel = 1 / (1 + (GI50 / cinhibitor)n) (S2)
Note: Reporter 1 were not toxic for 1 h at 10 μM.S2 Also in this study, the count value of living cells with addition of reporter 1, Hoechst 33342 and PI is always similar to that of living cells with only addition of Hoechst 33342 and PI.
as §2, with “with” for “in the presence of”, “2,” for “1,”
Note: Reporter 2 were not toxic for 24 h at 10 μM.S3 Also in this study, the count value of living cells with addition of reporter 2, Hoechst 33342 and PI is always similar to that of living cells with only addition of Hoechst 33342 and PI.
4.4.1. Screening with Disulfides as Inhibitors
4.4.1.1. Screening with ETP as Inhibitors
Fig. S35 Automatically analyzed HCHT data showing fluorescence intensity (filled symbols) and relative viability (empty symbols) of HeLa cells after pre-incubation with 3 for 1 h (blue […]

[3] = 0.5 h, tpre 0.5 h with inhibitor
[4] = 0.25 h, tpre 0.25 h with inhibitor
[5] = GI50, concentration causing 50% cell growth inhibition

Compound | IC50 [1, 3] | minimal effective concentration [1, 3] | minimal effective concentration ([1]; 1 h, tpre 1 h with inhibitor) | minimal effective concentration ([1]; 2 h, tpre 2 h with inhibitor) | minimal effective concentration ([1]; 4 h, tpre 4 h with inhibitor) | IC50 ([1]; tpre 1 h with inhibitor) | IC50 ([1]; tpre 2 h with inhibitor) | IC50 ([1]; tpre 4 h with inhibitor) | GI50 ([2]; tpre 0.5 h with inhibitor) | GI50 ([2]; tpre 1 h with inhibitor) | GI50 ([2]; tpre 2 h with inhibitor) | GI50 ([2]; tpre 4 h with inhibitor) | minimal effective concentration [1, 4] | IC50 ([1]; tpre 0.25 h with inhibitor) | MIC (concentration that causes ∼15% reduction of reporter uptake), against reporter 1 [1] | GI50 ([2]; tpre 0.25 h with inhibitor) | Inhibition of uptake of reporter 1, in words [1] | GI50 at 0.5 h [2, 5] | GI50 at 1 h [2, 5] | GI50 at 2 h [2, 5]
O=C(O)CN1C(=O)C2SSC1C(=O)N2CCOc1ccccc1 (stereo not drawn) [compound 5] | 1.1 ± 0.05 µM | 0.1 µM | 0.1 µM | 0.1 µM | 0.1 µM | 0.86 ± 0.06 µM | 0.98 ± 0.07 µM | 1.42 ± 0.26 µM | 10.3 ± 0.4 µM | 7 ± 0.6 µM | ~4.7 µM | ~4.1 µM |  |  |  |  |  |  |  | 
O=C(CN1C(=O)C2SSC1C(=O)N2CCOc1ccccc1)NCCS(=O)(=O)O (stereo not drawn) [compound 8] | > 100 µM | 10 µM | 2 µM | 6 µM |  | > 100 µM | > 100 µM |  | > 100 µM | > 100 µM | > 100 µM |  |  |  |  |  |  |  |  | 
COCCOCCOCCNC(=O)c1ccc2c(c1)SSSSS2 [compound 10] | 10.4 ± 0.3 µM | 6.5 µM | 7 µM | 3.5 µM |  | 10.1 ± 0.1 µM | > 5 µM |  | ~18 µM | ~10 µM | ~7 µM |  |  |  |  |  |  |  |  | 
CS(=O)(=O)c1nc2ccccc2o1 [compound 11] | 43.3 ± 3.9 µM | 15 µM | 8 µM |  |  | 38.9 ± 4.2 µM |  |  | 138 ± 42 µM | 97 ± 8 µM |  |  | 18 µM | 84 ± 8.2 µM | ≈ 15 μM | > 200 µM |  |  |  | 
CCN1C(=O)C2SSC1C(=O)N2CC(=O)NCC[N+](C)(C)C (stereo not drawn) [compound 12] | > 100 µM | 30 µM | 30 µM | 30 µM |  | > 100 µM | > 100 µM |  | > 100 µM | > 100 µM | > 100 µM |  |  |  | ≈ 30 μM |  |  |  |  | 
CS(=O)(=O)c1nnc(-c2ccccc2)o1 [compound 14] | 204 ± 63 µM | 20 µM |  |  |  |  |  |  | 410 ± 99 µM |  |  |  | 40 µM | 137 ± 28 µM |  | > 500 µM |  |  |  | 
O=C(O)c1cc(SSc2ccc([N+](=O)[O-])c(C(=O)O)c2)ccc1[N+](=O)[O-] [compound 20, 5,5’-Dithiobis(2-nitrobenzoic acid), reference compound] |  | 200 µM | 500 µM |  |  |  |  |  |  |  |  |  |  |  |  |  | minor inhibition up to around 2 mM, which disappeared again at higher concentrations | > 10 mM | > 10 mM | 
CS(=O)(=O)c1nc2ccccc2s1 [compound 21] | > 500 µM | 100 µM | 300 µM |  |  | > 500 µM |  |  | > 500 µM | > 500 µM |  |  | 300 µM | > 500 µM | ≈ 300 μM | > 500 µM |  |  |  | 
O=C(O)C1CS[S+]([O-])C1 (stereo not drawn) [compound 23] |  |  | 1000 µM | 1000 µM | 900 µM | > 2000 µM | > 2000 µM | > 1000 µM |  | > 2000 µM | 1780 ± 120 µM | 1470 ± 70 µM |  |  |  |  |  |  |  | 
O=C(O)CNC(=O)c1ccc2c(c1)S[S+]([O-])S2 (stereo not drawn) [compound 24] | > 20 µM | > 20 µM | > 20 µM | > 20 µM |  | > 20 µM | > 20 µM |  | > 20 µM | > 20 µM | > 20 µM |  |  |  |  |  |  |  |  | 
C=CCS[S+]([O-])CC=C (stereo not drawn) [compound 25, allicin, reference compound] |  |  | > 500 µM | > 500 µM |  | > 500 µM | > 500 µM |  |  |  |  |  |  |  |  |  | disappointing |  | > 0.5 mM | > 500 µM
